Measured values as given in patent US12559474B2, “Triazine derivatives having virus replication inhibitory activity and pharmaceutical composition comprising the same” (priority 2021, dated 2026).
pEC50, pIC50: −log10 of the molar value. Where two headings read alike, the source gives them in different places.

Key:
SARS-CoV-2 = experiment: microbe, parasite or virus in culture; assay type: cell-based; conditions: 50% SARS-CoV-2 infected cell death inhibitory concentration, VeroE6/TMPRSS2 cells, 3 days culture
SARS-CoV-2 3CL protease = SARS-CoV-2 3CL protease (Severe acute respiratory syndrome coronavirus 2, UniProt P0DTD1); experiment: biochemical; conditions: 50% SARS-CoV-2 3CL protease inhibitory concentration, read-out: IC50
[1] = Severe acute respiratory syndrome coronavirus 2, VeroE6/TMPRSS2, 72 h, class symbols
[2] = Severe acute respiratory syndrome coronavirus 2, VeroE6/TMPRSS2, 72 h, CellTiter-Glo 2.0

## CC1(Cn2cc3cc(Nc4nc(=O)n(Cc5ccc[nH]c5=O)c(=O)n4Cc4cc(F)c(F)c(F)c4)c(Cl)cc3n2)COC1 [II-0099]
SARS-CoV-2; [1]
  pEC50: 5.00 to 6.00
SARS-CoV-2 3CL protease; given as class symbols
  pIC50: > 7.00

## O=c1[nH]cccc1Cn1c(=O)nc(Nc2cc3cn(CC(F)F)nc3cc2Cl)n(Cc2cc(F)c(F)c(F)c2)c1=O [Compound I-0284]
SARS-CoV-2; [1]
  pEC50: > 6.00
SARS-CoV-2 3CL protease; given as class symbols
  pIC50: > 7.00

## COc1ccc(Nc2nc(=O)n(Cc3ccc[nH]c3=O)c(=O)n2Cc2cc(F)c(F)c(Cl)c2)cc1 [Compound I-0254]
SARS-CoV-2; [1]
  pEC50: 5.00 to 6.00
SARS-CoV-2 3CL protease; given as class symbols
  pIC50: > 7.00

## Cn1cc2cc(Nc3nc(=O)n(-c4cncc5ccccc45)c(=O)n3Cc3cc(F)c(F)c(F)c3)c(Cl)cc2n1 [Compound I-0378]
SARS-CoV-2; [1]
  pEC50: > 6.00
SARS-CoV-2 3CL protease; given as class symbols
  pIC50: > 7.00

## O=c1[nH]cccc1Cn1c(=O)nc(Nc2cccc3[nH]ccc23)n(Cc2cc(F)c(F)c(F)c2)c1=O [Compound I-0031]
SARS-CoV-2; [2]
  pEC50: 5.39
SARS-CoV-2; [1]
  pEC50: 5.00 to 6.00
SARS-CoV-2 3CL protease; given as class symbols
  pIC50: 6.00 to 7.00
SARS-CoV-2 3CL protease; RapidFire MS
  pIC50: 6.89

## Cn1cc2cc(Nc3nc(=O)n(-c4cncc(C#N)c4)c(=O)n3Cc3cc(Cl)c(F)cc3F)c(Cl)cc2n1 [II-0485]
SARS-CoV-2; [1]
  pEC50: > 6.00
SARS-CoV-2 3CL protease; given as class symbols
  pIC50: > 7.00

## Cn1cnc(Cn2c(=O)nc(Nc3cc4cn(C)nc4cc3Cl)n(Cc3cccc4ccccc34)c2=O)n1 [II-0223]
SARS-CoV-2; [2]
  pEC50: 4.65
SARS-CoV-2 3CL protease; RapidFire MS
  pIC50: 6.11

## Cn1cc2cc(Nc3nc(=O)n(-c4cncc(C5CC5)c4)c(=O)n3Cc3ccc(F)c(C#N)c3)c(Cl)cc2n1 [II-0261]
SARS-CoV-2; [1]
  pEC50: > 6.00
SARS-CoV-2 3CL protease; given as class symbols
  pIC50: > 7.00

## O=c1[nH]cc(F)cc1Cn1c(=O)nc(Nc2cc3c(cc2Cl)OCC3)n(Cc2cc(F)c(F)cc2F)c1=O [II-0022]
SARS-CoV-2; [1]
  pEC50: > 6.00
SARS-CoV-2 3CL protease; given as class symbols
  pIC50: > 7.00

## Cn1cc2cc(Nc3nc(=O)n(Cc4ccc[nH]c4=O)c(=O)n3Cc3cc(F)c(F)c(C#N)c3)c(Cl)cc2n1 [Compound I-0012]
SARS-CoV-2; [1]
  pEC50: 5.00 to 6.00
SARS-CoV-2 3CL protease; given as class symbols
  pIC50: > 7.00

## CNC(=O)Cn1cc2cc(Nc3nc(=O)n(Cc4ccc[nH]c4=O)c(=O)n3Cc3cc(F)c(F)c(F)c3)c(Cl)cc2n1 [Compound I-0368]
SARS-CoV-2; [1]
  pEC50: 5.00 to 6.00
SARS-CoV-2 3CL protease; given as class symbols
  pIC50: > 7.00

## COCc1cncc(-n2c(=O)nc(Nc3ccc4c(c3)CCO4)n(Cc3ccc(F)c(C#N)c3)c2=O)c1 [II-0271]
SARS-CoV-2; [1]
  pEC50: 5.00 to 6.00
SARS-CoV-2 3CL protease; given as class symbols
  pIC50: > 7.00

## Cc1cncc(-n2c(=O)nc(Nc3ccc4c(c3)CCO4)n(Cc3cc(F)c(F)c(F)c3)c2=O)c1 [II-0203]
SARS-CoV-2; [1]
  pEC50: > 6.00
SARS-CoV-2 3CL protease; given as class symbols
  pIC50: > 7.00

## Cc1cncc(-n2c(=O)nc(Nc3cc4c(cc3Cl)OC(C)C4)n(Cc3ccc(F)c(C#N)c3)c2=O)c1 (stereo not shown) [II-0121]
SARS-CoV-2; class symbols
  pEC50: > 6.00
SARS-CoV-2 3CL protease; given as class symbols
  pIC50: > 7.00

## Cn1cc2cc(Nc3nc(=O)n(-c4cncc5c4COC5)c(=O)n3Cc3cc(F)c(F)c(F)c3)c(Cl)cc2n1 [II-0503]
SARS-CoV-2; [1]
  pEC50: 5.00 to 6.00
SARS-CoV-2 3CL protease; given as class symbols
  pIC50: > 7.00

## Cc1c2cc(Nc3nc(=O)n(Cc4ncn(C)n4)c(=O)n3Cc3cc(F)c(F)c(Cl)c3)c(Cl)cc2nn1C [II-0438]
SARS-CoV-2; [1]
  pEC50: 5.00 to 6.00
SARS-CoV-2 3CL protease; given as class symbols
  pIC50: > 7.00

## Cc1cncc(-n2c(=O)nc(Nc3cc4c(cc3Cl)OCC4)n(Cc3ccc(F)c(C#N)c3)c2=O)c1 [II-0156]
SARS-CoV-2; [1]
  pEC50: > 6.00
SARS-CoV-2 3CL protease; given as class symbols
  pIC50: > 7.00

## Cn1cnc(Cn2c(=O)nc(Nc3cc4cn(CC(F)F)nc4cc3F)n(Cc3cc(F)c(F)cc3F)c2=O)n1 [II-0359]
SARS-CoV-2; [1]
  pEC50: 5.00 to 6.00
SARS-CoV-2 3CL protease; given as class symbols
  pIC50: > 7.00

## Cc1ccc(Cl)cc1Cn1c(Nc2cc3c(cc2Cl)nc2n3CCN2)nc(=O)n(-c2cncc(Cl)c2)c1=O [II-0095]
SARS-CoV-2; [1]
  pEC50: > 6.00
SARS-CoV-2 3CL protease; given as class symbols
  pIC50: > 7.00

## CC(C)(O)Cn1cc2cc(Nc3nc(=O)n(Cc4ccc[nH]c4=O)c(=O)n3Cc3cc(F)c(F)c(F)c3)c(Cl)cc2n1 [Compound I-0447]
SARS-CoV-2; [1]
  pEC50: 5.00 to 6.00
SARS-CoV-2 3CL protease; given as class symbols
  pIC50: > 7.00

## Cc1cncc(-n2c(=O)nc(Nc3ccc4nn(C)nc4c3)n(Cc3ccc(F)c(C#N)c3)c2=O)c1 [II-0183]
SARS-CoV-2; [1]
  pEC50: > 6.00
SARS-CoV-2 3CL protease; given as class symbols
  pIC50: > 7.00

## Cn1cc2cc(Nc3nc(=O)n(Cc4cc5ccsc5[nH]c4=O)c(=O)n3Cc3cc(F)c(F)c(F)c3)c(Cl)cc2n1 [Compound I-0110]
SARS-CoV-2; [2]
  pEC50: 6.49
SARS-CoV-2 3CL protease; RapidFire MS
  pIC50: 8.38

## Cc1cncc(-n2c(=O)nc(Nc3cc4oc(C)nc4cc3C)n(Cc3ccc(F)c(C#N)c3)c2=O)c1 [II-0110]
SARS-CoV-2; [1]
  pEC50: > 6.00
SARS-CoV-2 3CL protease; given as class symbols
  pIC50: > 7.00

## Cn1cnc(Cn2c(=O)nc(Nc3cc4sc(NCC5CC5)nc4cc3Cl)n(Cc3cc(F)c(F)cc3F)c2=O)n1 [II-0082]
SARS-CoV-2; [1]
  pEC50: 5.00 to 6.00
SARS-CoV-2 3CL protease; given as class symbols
  pIC50: > 7.00

## Cc1cncc(-n2c(=O)nc(Nc3cc4c(F)n(C)nc4cc3Cl)n(Cc3cc(F)c(F)c(F)c3)c2=O)c1 [II-0464]
SARS-CoV-2; [1]
  pEC50: > 6.00
SARS-CoV-2 3CL protease; given as class symbols
  pIC50: > 7.00

## Cc1cncc(-n2c(=O)nc(Nc3ccc4nn(C)cc4c3)n(Cc3cc(C#N)ccc3C)c2=O)c1 [II-0125]
SARS-CoV-2; [2]
  pEC50: 6.66
SARS-CoV-2 3CL protease; RapidFire MS
  pIC50: 8.32

## Cn1cc2cc(Nc3nc(=O)n(-c4cncc(Cl)c4)c(=O)n3Cc3cc(C#N)ccc3Cl)ccc2n1 [II-0523]
SARS-CoV-2; [2]
  pEC50: 6.62
SARS-CoV-2 3CL protease; RapidFire MS
  pIC50: 7.96

## COc1ccc(Nc2nc(=O)n(CC3CCN(C)C3)c(=O)n2Cc2cc(F)c(F)c(F)c2)cc1 (stereo not shown) [II-0259]
SARS-CoV-2; [2]
  pEC50: 4.44
SARS-CoV-2 3CL protease; RapidFire MS
  pIC50: 5.47

## Cn1cnc(Cn2c(=O)nc(Nc3cc4sc(N)nc4cc3Cl)n(Cc3cc(F)c(F)cc3F)c2=O)n1 [II-0536]
SARS-CoV-2; [1]
  pEC50: 5.00 to 6.00
SARS-CoV-2 3CL protease; given as class symbols
  pIC50: > 7.00

## Cc1nc2cc(Cl)c(Nc3nc(=O)n(Cc4ncn(C)n4)c(=O)n3Cc3cc(F)c(F)cc3F)cc2s1 [II-0287]
SARS-CoV-2; [1]
  pEC50: 5.00 to 6.00
SARS-CoV-2 3CL protease; given as class symbols
  pIC50: > 7.00

## COc1ccc(Nc2nc(=O)n(-c3cncc(C)c3)c(=O)n2Cc2ccc(F)c(C#N)c2)c(F)c1 [II-0180]
SARS-CoV-2; [1]
  pEC50: > 6.00
SARS-CoV-2 3CL protease; given as class symbols
  pIC50: > 7.00

## Cn1cc2cc(Nc3nc(=O)n(-c4cncc(Cl)c4)c(=O)n3Cc3ccc(F)c(C#N)c3)c(Cl)cc2n1 [II-0120]
SARS-CoV-2; [2]
  pEC50: 6.90
SARS-CoV-2 3CL protease; RapidFire MS
  pIC50: 8.05

## COc1ccnc(Cn2c(=O)nc(Nc3cc4cn(C)nc4cc3Cl)n(Cc3cc(F)c(F)cc3F)c2=O)c1 [II-0252]
SARS-CoV-2; [1]
  pEC50: 5.00 to 6.00
SARS-CoV-2 3CL protease; given as class symbols
  pIC50: > 7.00

## Cn1cc2cc(Nc3nc(=O)n(-c4cnc5ccccn45)c(=O)n3Cc3cc(F)c(F)c(F)c3)c(Cl)cc2n1 [II-0391]
SARS-CoV-2; [1]
  pEC50: 5.00 to 6.00
SARS-CoV-2 3CL protease; given as class symbols
  pIC50: > 7.00

## Cc1c2cc(Nc3nc(=O)n(Cc4ncn(C)n4)c(=O)n3Cc3cc(Cl)c(F)cc3F)c(Cl)cc2nn1C [II-0437]
SARS-CoV-2; [1]
  pEC50: > 6.00
SARS-CoV-2 3CL protease; given as class symbols
  pIC50: > 7.00

## Cn1cnc(Cn2c(=O)nc(Nc3cc4cn(CC(=O)OC(C)(C)C)nc4cc3Cl)n(Cc3cc(Cl)c(F)cc3F)c2=O)n1 [II-0309]
SARS-CoV-2; [1]
  pEC50: 5.00 to 6.00
SARS-CoV-2 3CL protease; given as class symbols
  pIC50: > 7.00

## Cn1cc2cc(Nc3nc(=O)n(-c4cncc5ccccc45)c(=O)n3Cc3cc(F)c(F)cc3F)c(Cl)cc2n1 [II-0308]
SARS-CoV-2; [1]
  pEC50: > 6.00
SARS-CoV-2 3CL protease; given as class symbols
  pIC50: > 7.00

## CNc1nc2cc(F)c(Nc3nc(=O)n(-c4cncc(C)c4)c(=O)n3Cc3cc(C#N)ccc3Cl)cc2s1 [II-0292]
SARS-CoV-2; [2]
  pEC50: 6.36
SARS-CoV-2 3CL protease; RapidFire MS
  pIC50: 8.41

## C/C=C/c1cc(F)c(F)cc1Cn1c(Nc2cc3cn(C)nc3cc2Cl)nc(=O)n(-c2cncc(C)c2)c1=O [II-0066]
SARS-CoV-2; [1]
  pEC50: 5.00 to 6.00
SARS-CoV-2 3CL protease; given as class symbols
  pIC50: > 7.00

## Cn1cnc(Cn2c(=O)nc(Nc3cc4cn(CC5CC5)nc4cc3Cl)n(Cc3cc(F)c(F)cc3F)c2=O)n1 [II-0352]
SARS-CoV-2; [1]
  pEC50: > 6.00
SARS-CoV-2 3CL protease; given as class symbols
  pIC50: > 7.00

## Cn1cnc(Cn2c(=O)nc(Nc3cc4oc(N)nc4cc3Cl)n(Cc3cc(F)c(F)c(Cl)c3)c2=O)n1 [II-0508]
SARS-CoV-2; [1]
  pEC50: 5.00 to 6.00
SARS-CoV-2 3CL protease; given as class symbols
  pIC50: > 7.00

## Cc1cncc(-n2c(=O)nc(Nc3cc4cn(C)nc4cc3Cl)n(Cc3cc(Cl)c(F)cc3C)c2=O)c1 [II-0043]
SARS-CoV-2; [2]
  pEC50: 6.63
SARS-CoV-2 3CL protease; RapidFire MS
  pIC50: 8.24

## Cc1cncc(-n2c(=O)nc(Nc3cc4cn(C)nc4cc3Br)n(Cc3ccc(F)c(C#N)c3)c2=O)c1 [II-0167]
SARS-CoV-2; [1]
  pEC50: > 6.00
SARS-CoV-2 3CL protease; given as class symbols
  pIC50: > 7.00
